Test results as given in patent US20060264408A1, “Sod minic multifunctional compounds for treating inflammatory bowel disease” (priority 2003, published 2006).

Test system: acetic acid-induced colitis
Assay: acetic acid-induced colitis in rats: oxidative stress markers (PCC, TBARS) in colonic tissue
Conditions: for activity compared with 5-ASA and lipoic acid: acetic acid-induced rat colitis; for TBARS (thiobarbituric acid reactive substrates), Pre-treatment / PCC (tissue protein carbonyl content), Pre-treatment: administered 10 minutes before induction of colitis; for TBARS (thiobarbituric acid reactive substrates), Pre-treatment / PCC (tissue protein carbonyl content), Pre-treatment / TBARS (thiobarbituric acid reactive substrates), Post-treatment / PCC (tissue protein carbonyl content), Post-treatment: 5-ASA 100 mg/kg, LA 50 mg/kg, compounds 1 and 7 50 mg/kg, sacrificed 24 hr post induction; for TBARS (thiobarbituric acid reactive substrates), Pre-treatment: control 18 ± 4, AA alone 187 ± 14; for PCC (tissue protein carbonyl content), Pre-treatment: control 261 ± 27, AA alone 1687 ± 98; for TBARS (thiobarbituric acid reactive substrates), Post-treatment / PCC (tissue protein carbonyl content), Post-treatment: administered 30 minutes after induction of colitis; for TBARS (thiobarbituric acid reactive substrates), Post-treatment: control 15 ± 3, AA alone 163 ± 14; for PCC (tissue protein carbonyl content), Post-treatment: control 273 ± 21, AA alone 1587 ± 95; for treated rats compared with control healthy rats (PCC, TBARS): results of the table, P<0.05

Row | Compound | activity compared with 5-ASA and lipoic acid | TBARS (thiobarbituric acid reactive substrates), Pre-treatment | PCC (tissue protein carbonyl content), Pre-treatment | TBARS (thiobarbituric acid reactive substrates), Post-treatment | PCC (tissue protein carbonyl content), Post-treatment | treated rats compared with control healthy rats (PCC, TBARS)
1 | O=C(O)CCCC[C@@H]1CCSS1 (racemic) [lipoic acid, reference compound] | as effective as 5-ASA | 73 ± 8 | 867 ± 73 | 64 ± 8 | 713 ± 31 | –
2 | Cc1cc(O)c(C(=O)O)cc1/N=N\c1ccc2c(c1)C(C)(C)N([O])C2(C)C [Compound 1] | more active than either of LA or ASA used separately or even simultaneously | 27 ± 4 | 293 ± 33 | 18 ± 3 | 278 ± 32 | statistically indifferent from control healthy rats
3 | Nc1ccc(O)c(C(=O)O)c1 [Compound 5-ASA, 5-aminosalicylic acid, reference compound] | – | 89 ± 9 | 959 ± 48 | 74 ± 9 | 873 ± 79 | –
4 | O=C(O)c1cc2[nH]c(CCCCC3CCSS3)nc2cc1O (stereo not drawn) [Compound 7] | more active than either of LA or ASA used separately or even simultaneously | 21 ± 3 | 284 ± 26 | 19 ± 2 | 269 ± 28 | statistically indifferent from control healthy rats
